ChEMBL document CHEMBL1671627, “Increasing trends in antimicrobial resistance among clinically important anaerobes and Bacteroides fragilis isolates causing nosocomial infections: emerging resistance to carbapenems” (2008)
Converted amounts (≈) assume the structure as drawn.

What was measured:
[1] = test system: Bacteroides thetaiotaomicron; experiment: Antibacterial activity against beta-lactamase producing Bacteroides thetaiotaomicron assessed as susceptible isolates by CLSI agar dilution method; type: functional
[2] = test system: Prevotella melaninogenica; experiment: Antibacterial activity against Prevotella melaninogenica assessed as resistant isolates by CLSI agar dilution method; type: functional
Fusobacterium varium [3] = experiment: Antibacterial activity against Fusobacterium varium assessed as susceptible isolates by CLSI agar dilution method; type: functional
Prevotella bivia [4] = experiment: Antibacterial activity against Prevotella bivia by CLSI agar dilution method; type: functional
Phocaeicola vulgatus [5] = experiment: Antibacterial activity against beta-lactamase producing Bacteroides vulgatus assessed as resistant isolates by CLSI agar dilution method; type: functional
Finegoldia magna [6] = experiment: Antibacterial activity against beta-lactamase producing Finegoldia magna assessed as resistant isolates by CLSI agar dilution method; type: functional
Fusobacterium nucleatum [7] = experiment: Antibacterial activity against Fusobacterium nucleatum assessed as resistant isolates by CLSI agar dilution method; type: functional
Fusobacterium mortiferum [8] = experiment: Antibacterial activity against Fusobacterium mortiferum assessed as resistant isolates by CLSI agar dilution method; type: functional
Phocaeicola vulgatus [9] = experiment: Antibacterial activity against beta-lactamase producing Bacteroides vulgatus by CLSI agar dilution method; type: functional
Bacteroides caccae [10] = experiment: Antibacterial activity against beta-lactamase producing Bacteroides caccae by CLSI agar dilution method; type: functional
[11] = test system: Clostridium paraputrificum; experiment: Antibacterial activity against beta-lactamase producing Clostridium paraputrificum by CLSI agar dilution method; type: functional
Clostridium tertium [12] = experiment: Antibacterial activity against beta-lactamase producing Clostridium tertium by CLSI agar dilution method; type: functional
Fusobacterium mortiferum [13] = experiment: Antibacterial activity against Fusobacterium mortiferum assessed as susceptible isolates by CLSI agar dilution method; type: functional
[14] = test system: Peptostreptococcus anaerobius; experiment: Antibacterial activity against beta-lactamase producing Peptostreptococcus anaerobius assessed as resistant isolates by CLSI agar dilution method; type: functional
Clostridium septicum [15] = experiment: Antibacterial activity against beta-lactamase producing Clostridium septicum assessed as susceptible isolates by CLSI agar dilution method; type: functional
Fusobacterium nucleatum [16] = experiment: Antibacterial activity against Fusobacterium nucleatum assessed as susceptible isolates by CLSI agar dilution method; type: functional
Bacteroides caccae [17] = experiment: Antibacterial activity against beta-lactamase producing Bacteroides caccae assessed as susceptible isolates by CLSI agar dilution method; type: functional
[18] = test system: Peptoniphilus asaccharolyticus; experiment: Antibacterial activity against beta-lactamase producing Peptoniphilus asaccharolyticus by CLSI agar dilution method; type: functional
[19] = test system: Prevotella melaninogenica; experiment: Antibacterial activity against Prevotella melaninogenica by CLSI agar dilution method; type: functional
[20] = test system: Fusobacterium necrophorum; experiment: Antibacterial activity against Fusobacterium necrophorum assessed as resistant isolates by CLSI agar dilution method; type: functional
[21] = test system: Bacteroides thetaiotaomicron; experiment: Antibacterial activity against beta-lactamase producing Bacteroides thetaiotaomicron by CLSI agar dilution method; type: functional
[22] = test system: Fusobacterium necrophorum; experiment: Antibacterial activity against Fusobacterium necrophorum by CLSI agar dilution method; type: functional
Fusobacterium mortiferum [23] = experiment: Antibacterial activity against Fusobacterium mortiferum by CLSI agar dilution method; type: functional
Parvimonas micra [24] = experiment: Antibacterial activity against beta-lactamase producing Micromonas micros assessed as susceptible isolates by CLSI agar dilution method; type: functional
Parvimonas micra [25] = experiment: Antibacterial activity against beta-lactamase producing Micromonas micros assessed as resistant isolates by CLSI agar dilution method; type: functional
Phocaeicola vulgatus [26] = experiment: Antibacterial activity against beta-lactamase producing Bacteroides vulgatus assessed as susceptible isolates by CLSI agar dilution method; type: functional
Bacteroides fragilis [27] = experiment: Antibacterial activity against Bacteroides fragilis by CLSI agar dilution method; type: functional
Clostridium perfringens = experiment: microbe, parasite or virus in culture; type: functional
Bacteroides caccae [28] = experiment: Antibacterial activity against beta-lactamase producing Bacteroides caccae assessed as resistant isolates by CLSI agar dilution method; type: functional
Prevotella bivia [29] = experiment: Antibacterial activity against Prevotella bivia assessed as resistant isolates by CLSI agar dilution method; type: functional
[30] = test system: Peptostreptococcus anaerobius; experiment: Antibacterial activity against beta-lactamase producing Peptostreptococcus anaerobius by CLSI agar dilution method; type: functional
Finegoldia magna [31] = experiment: Antibacterial activity against beta-lactamase producing Finegoldia magna assessed as susceptible isolates by CLSI agar dilution method; type: functional
[32] = test system: Clostridium paraputrificum; experiment: Antibacterial activity against beta-lactamase producing Clostridium paraputrificum assessed as susceptible isolates by CLSI agar dilution method; type: functional
[33] = test system: Clostridium paraputrificum; experiment: Antibacterial activity against beta-lactamase producing Clostridium paraputrificum assessed as resistant isolates by CLSI agar dilution method; type: functional
[34] = test system: Fusobacterium necrophorum; experiment: Antibacterial activity against Fusobacterium necrophorum assessed as susceptible isolates by CLSI agar dilution method; type: functional
Bacteroides fragilis [35] = experiment: Antibacterial activity against Bacteroides fragilis assessed as susceptible isolates by CLSI agar dilution method; type: functional
Prevotella buccae [36] = experiment: Antibacterial activity against Prevotella buccae by CLSI agar dilution method; type: functional; conditions: Segatella buccae
Clostridium septicum [37] = experiment: Antibacterial activity against beta-lactamase producing Clostridium septicum assessed as resistant isolates by CLSI agar dilution method; type: functional
Prevotella intermedia [38] = experiment: Antibacterial activity against Prevotella intermedia assessed as susceptible isolates by CLSI agar dilution method; type: functional
Fusobacterium varium [39] = experiment: Antibacterial activity against Fusobacterium varium by CLSI agar dilution method; type: functional
Bacteroides fragilis [40] = experiment: Antibacterial activity against Bacteroides fragilis assessed as resistant isolates by CLSI agar dilution method; type: functional
Bacteroides uniformis [41] = experiment: Antibacterial activity against beta-lactamase producing Bacteroides uniformis by CLSI agar dilution method; type: functional
Clostridium tertium [42] = experiment: Antibacterial activity against beta-lactamase producing Clostridium tertium assessed as susceptible isolates by CLSI agar dilution method; type: functional
[43] = test system: Peptoniphilus asaccharolyticus; experiment: Antibacterial activity against beta-lactamase producing Peptoniphilus asaccharolyticus assessed as susceptible isolates by CLSI agar dilution method; type: functional
Prevotella intermedia [44] = experiment: Antibacterial activity against Prevotella intermedia assessed as resistant isolates by CLSI agar dilution method; type: functional
Prevotella buccae [45] = experiment: Antibacterial activity against Prevotella buccae assessed as susceptible isolates by CLSI agar dilution method; type: functional, Segatella buccae
Prevotella buccae [46] = experiment: Antibacterial activity against Prevotella buccae assessed as resistant isolates by CLSI agar dilution method; type: functional, Segatella buccae
Fusobacterium nucleatum [47] = experiment: Antibacterial activity against Fusobacterium nucleatum by CLSI agar dilution method; type: functional
Prevotella bivia [48] = experiment: Antibacterial activity against Prevotella bivia assessed as susceptible isolates by CLSI agar dilution method; type: functional
Veillonella parvula = experiment: Antibacterial activity against Veillonella parvula by CLSI agar dilution method; type: functional
[49] = test system: Peptoniphilus asaccharolyticus; experiment: Antibacterial activity against beta-lactamase producing Peptoniphilus asaccharolyticus assessed as resistant isolates by CLSI agar dilution method; type: functional
Prevotella intermedia [50] = experiment: Antibacterial activity against Prevotella intermedia by CLSI agar dilution method; type: functional
Finegoldia magna [51] = experiment: Antibacterial activity against beta-lactamase producing Finegoldia magna by CLSI agar dilution method; type: functional
Bacteroides uniformis [52] = experiment: Antibacterial activity against beta-lactamase producing Bacteroides uniformis assessed as resistant isolates by CLSI agar dilution method; type: functional
Clostridium tertium [53] = experiment: Antibacterial activity against beta-lactamase producing Clostridium tertium assessed as resistant isolates by CLSI agar dilution method; type: functional
[54] = test system: Peptostreptococcus anaerobius; experiment: Antibacterial activity against beta-lactamase producing Peptostreptococcus anaerobius assessed as susceptible isolates by CLSI agar dilution method; type: functional
Parvimonas micra [55] = experiment: Antibacterial activity against beta-lactamase producing Micromonas micros by CLSI agar dilution method; type: functional
Fusobacterium varium [56] = experiment: Antibacterial activity against Fusobacterium varium assessed as resistant isolates by CLSI agar dilution method; type: functional
[57] = test system: Bacteroides thetaiotaomicron; experiment: Antibacterial activity against beta-lactamase producing Bacteroides thetaiotaomicron assessed as resistant isolates by CLSI agar dilution method; type: functional
Clostridium septicum [58] = experiment: Antibacterial activity against beta-lactamase producing Clostridium septicum by CLSI agar dilution method; type: functional
Bacteroides uniformis [59] = experiment: Antibacterial activity against beta-lactamase producing Bacteroides uniformis assessed as susceptible isolates by CLSI agar dilution method; type: functional
[60] = test system: Prevotella melaninogenica; experiment: Antibacterial activity against Prevotella melaninogenica assessed as susceptible isolates by CLSI agar dilution method; type: functional

C[C@@H](O)[C@H]1C(=O)N2C(C(=O)O)=C(S[C@@H]3CN[C@H](C(=O)N(C)C)C3)[C@H](C)[C@H]12 [MEROPENEM]
Activity [1]: 97%
Activity [2]: 0%
Activity (Fusobacterium varium [3]): 92%
MIC50 (Prevotella bivia [4]): 0.12 µg/mL (≈ 0.313 µM)
MIC90 (Prevotella bivia [4]): 0.25 µg/mL (≈ 0.652 µM)
Activity (Phocaeicola vulgatus [5]): 4%
Activity (Finegoldia magna [6]): 0%
Activity (Fusobacterium nucleatum [7]): 8%
Activity (Fusobacterium mortiferum [8]): 8%
MIC50 (Phocaeicola vulgatus [9]): 0.5 µg/mL (≈ 1.3 µM)
MIC90 (Phocaeicola vulgatus [9]): 2 µg/mL (≈ 5.22 µM)
MIC50 (Bacteroides caccae [10]): 0.5 µg/mL (≈ 1.3 µM)
MIC90 (Bacteroides caccae [10]): 2 µg/mL (≈ 5.22 µM)
MIC [11]: 0.03 µg/mL (≈ 0.0782 µM)
MIC50 [11]: 0.03 µg/mL (≈ 0.0782 µM)
MIC90 [11]: 2 µg/mL (≈ 5.22 µM)
MIC (Clostridium tertium [12]): 0.03 µg/mL (≈ 0.0782 µM)
MIC50 (Clostridium tertium [12]): 0.03 µg/mL (≈ 0.0782 µM)
MIC90 (Clostridium tertium [12]): 2 µg/mL (≈ 5.22 µM)
Activity (Fusobacterium mortiferum [13]): 92%
Activity [14]: 0%
Activity (Clostridium septicum [15]): 100%
Activity (Fusobacterium nucleatum [16]): 92%
Activity (Bacteroides caccae [17]): 96%
MIC50 [18]: 0.06 µg/mL (≈ 0.156 µM)
MIC90 [18]: 0.5 µg/mL (≈ 1.3 µM)
MIC50 [19]: 0.12 µg/mL (≈ 0.313 µM)
MIC90 [19]: 0.25 µg/mL (≈ 0.652 µM)
Activity [20]: 8%
MIC50 [21]: 0.25 µg/mL (≈ 0.652 µM)
MIC90 [21]: 2 µg/mL (≈ 5.22 µM)
MIC50 [22]: 0.06 µg/mL (≈ 0.156 µM)
MIC90 [22]: 0.12 µg/mL (≈ 0.313 µM)
MIC50 (Fusobacterium mortiferum [23]): 0.06 µg/mL (≈ 0.156 µM)
MIC90 (Fusobacterium mortiferum [23]): 0.12 µg/mL (≈ 0.313 µM)
Activity (Parvimonas micra [24]): 100%
Activity (Parvimonas micra [25]): 0%
Activity (Phocaeicola vulgatus [26]): 96%
MIC50 (Bacteroides fragilis [27]): 0.28 µg/mL (≈ 0.73 µM)
MIC90 (Bacteroides fragilis [27]): 8 µg/mL (≈ 20.9 µM)
MIC (Clostridium perfringens): 0.03 µg/mL (≈ 0.0782 µM)
MIC50 (Clostridium perfringens): 0.03 µg/mL (≈ 0.0782 µM)
MIC90 (Clostridium perfringens): 2 µg/mL (≈ 5.22 µM)
Activity (Bacteroides caccae [28]): 4%
Activity (Prevotella bivia [29]): 0%
MIC50 [30]: 0.06 µg/mL (≈ 0.156 µM)
MIC90 [30]: 0.5 µg/mL (≈ 1.3 µM)
Activity (Finegoldia magna [31]): 100%
Activity [32]: 100%
Activity [33]: 0%
Activity [34]: 92%
Activity (Bacteroides fragilis [35]): 88%
MIC50 (Prevotella buccae [36]): 0.12 µg/mL (≈ 0.313 µM)
MIC90 (Prevotella buccae [36]): 0.25 µg/mL (≈ 0.652 µM)
Activity (Clostridium septicum [37]): 0%
Activity (Prevotella intermedia [38]): 100%
MIC50 (Fusobacterium varium [39]): 0.06 µg/mL (≈ 0.156 µM)
MIC90 (Fusobacterium varium [39]): 0.12 µg/mL (≈ 0.313 µM)
Activity (Bacteroides fragilis [40]): 5%
MIC50 (Bacteroides uniformis [41]): 0.5 µg/mL (≈ 1.3 µM)
MIC90 (Bacteroides uniformis [41]): 2 µg/mL (≈ 5.22 µM)
Activity (Clostridium tertium [42]): 100%
Activity [43]: 100%
Activity (Prevotella intermedia [44]): 0%
Activity (Prevotella buccae [45]): 100%
Activity (Prevotella buccae [46]): 0%
MIC50 (Fusobacterium nucleatum [47]): 0.06 µg/mL (≈ 0.156 µM)
MIC90 (Fusobacterium nucleatum [47]): 0.12 µg/mL (≈ 0.313 µM)
Activity (Prevotella bivia [48]): 100%
MIC (Veillonella parvula): 0.06 µg/mL (≈ 0.156 µM)
Activity [49]: 0%
MIC50 (Prevotella intermedia [50]): 0.12 µg/mL (≈ 0.313 µM)
MIC90 (Prevotella intermedia [50]): 0.25 µg/mL (≈ 0.652 µM)
MIC50 (Finegoldia magna [51]): 0.06 µg/mL (≈ 0.156 µM)
MIC90 (Finegoldia magna [51]): 0.5 µg/mL (≈ 1.3 µM)
Activity (Bacteroides uniformis [52]): 4%
Activity (Clostridium tertium [53]): 0%
Activity [54]: 100%
MIC50 (Parvimonas micra [55]): 0.06 µg/mL (≈ 0.156 µM)
MIC90 (Parvimonas micra [55]): 0.5 µg/mL (≈ 1.3 µM)
Activity (Fusobacterium varium [56]): 8%
Activity [57]: 0%
MIC (Clostridium septicum [58]): 0.03 µg/mL (≈ 0.0782 µM)
MIC50 (Clostridium septicum [58]): 0.03 µg/mL (≈ 0.0782 µM)
MIC90 (Clostridium septicum [58]): 2 µg/mL (≈ 5.22 µM)
Activity (Bacteroides uniformis [59]): 96%
Activity [60]: 100%
